What all share (format): biochemical
One assay addresses PI3K-gamma (Homo sapiens, UniProt P48736). In words: PI3K-gamma fluorescence polarization assay. To be noted: PI3Kγ Avg. IC50. The essentials:
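Enzyme 5 ng; substrate diC8-PI(4,5)P2 2.5 μM; ATP 25 μM; 5 mM HEPES pH 7, 2.5 mM MgCl2; DMSO ≤2%; 1 h, 25° C. Quench 10 mM EDTA. Detect with GRP1 PH domain 100 nM + TMR-IP4 probe 5 nM by polarization.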
(Fluorescence polarisation rises when a labelled molecule tumbles more slowly, as on binding a larger partner.)

The target of the next assay is T1, human TOR (Homo sapiens, UniProt P42345).
T1 construct: FLAG
In words: mTOR enzyme assay (DELFIA, His6-S6K substrate). To be noted: read-out: mTOR Kinase Avg. IC50.

The target in a further assay is PI3K-alpha (Homo sapiens, UniProt P42336). Kind of assay: PI3K-alpha fluorescence polarization assay. To be noted: read-out: PI3Kα Avg. IC50.

Structures are written as SMILES.

This note sets out measurements from patent US20090311217A1, “3-SUBSTITUTED-1H-INDOLE COMPOUNDS, THEIR USE AS MTOR KINASE AND PI3 KINASE INHIBITORS, AND THEIR SYNTHESES” (priority 2008, published 2009).

PI3K-gamma, sequence (P48736 whole entry, species assumed, the tested form may be a part): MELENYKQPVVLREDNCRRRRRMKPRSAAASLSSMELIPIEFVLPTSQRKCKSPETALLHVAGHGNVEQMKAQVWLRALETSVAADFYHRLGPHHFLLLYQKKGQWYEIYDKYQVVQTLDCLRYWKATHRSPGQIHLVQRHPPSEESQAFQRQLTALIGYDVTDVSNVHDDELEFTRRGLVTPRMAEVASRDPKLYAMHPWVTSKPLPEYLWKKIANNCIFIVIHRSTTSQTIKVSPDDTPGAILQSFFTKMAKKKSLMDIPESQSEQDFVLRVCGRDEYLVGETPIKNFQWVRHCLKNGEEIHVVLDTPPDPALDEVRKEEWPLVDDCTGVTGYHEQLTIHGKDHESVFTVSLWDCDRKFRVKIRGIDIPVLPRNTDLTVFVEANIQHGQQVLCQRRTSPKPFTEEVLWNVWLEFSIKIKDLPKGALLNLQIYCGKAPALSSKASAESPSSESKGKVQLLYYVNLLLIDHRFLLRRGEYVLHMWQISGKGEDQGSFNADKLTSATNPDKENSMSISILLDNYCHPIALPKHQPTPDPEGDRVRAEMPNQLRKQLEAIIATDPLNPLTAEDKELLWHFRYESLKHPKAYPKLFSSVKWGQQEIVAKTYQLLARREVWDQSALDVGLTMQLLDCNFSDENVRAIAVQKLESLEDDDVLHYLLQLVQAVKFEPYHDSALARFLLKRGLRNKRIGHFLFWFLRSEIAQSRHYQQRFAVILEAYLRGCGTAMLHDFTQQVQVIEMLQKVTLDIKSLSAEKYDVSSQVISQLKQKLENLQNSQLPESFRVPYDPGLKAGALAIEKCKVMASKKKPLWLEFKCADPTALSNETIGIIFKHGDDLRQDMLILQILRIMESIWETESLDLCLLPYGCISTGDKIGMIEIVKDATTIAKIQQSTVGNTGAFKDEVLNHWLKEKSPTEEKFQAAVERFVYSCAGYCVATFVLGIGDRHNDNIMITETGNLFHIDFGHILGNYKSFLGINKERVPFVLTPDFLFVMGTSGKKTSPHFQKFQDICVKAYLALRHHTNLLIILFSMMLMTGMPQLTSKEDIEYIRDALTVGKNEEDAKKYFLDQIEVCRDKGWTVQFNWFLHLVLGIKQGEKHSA
PI3K-alpha, sequence (P42336 whole entry, species assumed): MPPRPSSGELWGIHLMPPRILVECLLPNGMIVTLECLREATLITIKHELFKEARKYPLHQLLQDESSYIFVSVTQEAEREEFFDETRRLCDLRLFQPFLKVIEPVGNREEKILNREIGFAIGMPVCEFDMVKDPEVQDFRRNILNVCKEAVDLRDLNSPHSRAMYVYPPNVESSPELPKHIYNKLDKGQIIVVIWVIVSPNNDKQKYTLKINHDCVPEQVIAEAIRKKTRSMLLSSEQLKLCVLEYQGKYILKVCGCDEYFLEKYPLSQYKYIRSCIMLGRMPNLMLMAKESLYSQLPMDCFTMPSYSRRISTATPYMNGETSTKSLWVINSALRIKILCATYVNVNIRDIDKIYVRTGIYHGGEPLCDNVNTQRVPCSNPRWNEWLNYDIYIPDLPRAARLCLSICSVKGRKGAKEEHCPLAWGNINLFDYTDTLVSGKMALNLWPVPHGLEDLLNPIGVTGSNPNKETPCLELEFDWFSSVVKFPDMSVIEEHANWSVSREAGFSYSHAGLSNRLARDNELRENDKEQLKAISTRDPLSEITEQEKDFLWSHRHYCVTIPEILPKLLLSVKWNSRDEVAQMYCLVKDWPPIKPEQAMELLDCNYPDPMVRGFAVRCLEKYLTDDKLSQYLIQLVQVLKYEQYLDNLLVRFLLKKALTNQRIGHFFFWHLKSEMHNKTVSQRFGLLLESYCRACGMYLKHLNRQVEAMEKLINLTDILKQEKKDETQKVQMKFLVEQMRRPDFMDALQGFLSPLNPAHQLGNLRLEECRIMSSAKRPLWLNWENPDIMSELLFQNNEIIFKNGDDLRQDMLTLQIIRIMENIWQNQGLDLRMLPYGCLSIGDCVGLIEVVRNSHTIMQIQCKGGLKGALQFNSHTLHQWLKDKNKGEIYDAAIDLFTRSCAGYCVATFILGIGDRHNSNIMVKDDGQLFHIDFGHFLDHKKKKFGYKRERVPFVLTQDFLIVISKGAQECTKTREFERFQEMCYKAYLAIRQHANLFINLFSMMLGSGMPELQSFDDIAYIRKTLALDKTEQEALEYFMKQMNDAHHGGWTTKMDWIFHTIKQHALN
PI3K-alpha, sequence (P27986 whole entry partner, species assumed): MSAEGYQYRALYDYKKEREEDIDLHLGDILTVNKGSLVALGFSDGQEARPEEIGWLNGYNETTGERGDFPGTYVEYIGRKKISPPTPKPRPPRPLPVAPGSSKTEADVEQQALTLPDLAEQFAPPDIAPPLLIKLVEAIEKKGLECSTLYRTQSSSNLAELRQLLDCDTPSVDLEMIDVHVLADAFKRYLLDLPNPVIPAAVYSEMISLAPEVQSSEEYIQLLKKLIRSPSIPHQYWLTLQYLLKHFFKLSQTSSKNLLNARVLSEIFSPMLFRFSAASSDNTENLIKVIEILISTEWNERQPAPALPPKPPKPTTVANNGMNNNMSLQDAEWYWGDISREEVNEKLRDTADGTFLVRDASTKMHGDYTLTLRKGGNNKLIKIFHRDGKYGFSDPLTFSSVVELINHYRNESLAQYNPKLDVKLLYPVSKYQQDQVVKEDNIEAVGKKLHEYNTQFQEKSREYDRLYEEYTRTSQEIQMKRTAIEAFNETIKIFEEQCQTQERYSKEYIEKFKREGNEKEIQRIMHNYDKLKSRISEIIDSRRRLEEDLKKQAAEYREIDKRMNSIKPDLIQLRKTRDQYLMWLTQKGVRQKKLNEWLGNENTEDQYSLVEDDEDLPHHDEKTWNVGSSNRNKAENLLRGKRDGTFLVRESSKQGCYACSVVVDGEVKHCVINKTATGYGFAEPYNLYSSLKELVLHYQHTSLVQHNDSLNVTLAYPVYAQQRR

One may read the IC50 as the concentration that gives 50% inhibition. As for `CN1CCN(c2cccc3c2c(/C=C2\Oc4cc(O)cc(O)c4C2=O)cn3C)CC1` [Example 439, (2Z)-4,6-dihydroxy-2-{[1-methyl-4-(4-methylpiperazin-1-yl)-1H-indol-3-yl]methylene}-1-benzofuran-3(2H)-one], the IC50 against PI3K-gamma was greater than 10000 nM; on human TOR, 33.8 nM; at PI3K-alpha, 4280 nM.

Consider `Cn1cc(/C=C2\Oc3cccc(O)c3C2=O)c2ccccc21` [Example 441, (2Z)-4-Hydroxy-2-[(1-methyl-1H-indol-3-yl)methylene]benzofuran-3(2H)-one], for which the half-inhibitory concentration (IC50) against PI3K-gamma was greater than 10000 nM; at human TOR it was greater than 20000 nM; on PI3K-alpha, greater than 10000 nM.

As to `Cn1c(-c2ccccc2)c(/C=C2\Oc3cccc(O)c3C2=O)c2ccccc21` [Example 442, (2Z)-4-Hydroxy-2-[(1-methyl-2-phenyl-1H-indol-3-yl)methylene]benzofuran-3(2H)-one], the values for the IC50 against PI3K-gamma, at human TOR and on PI3K-alpha were greater than 5100 nM, greater than 20000 nM and greater than 5100 nM, respectively.

Regarding `Cn1cc(/C=C2\Oc3cc(O)ccc3C2=O)c2c(-c3ccccc3)cccc21` [Example 443, (2Z)-6-Hydroxy-2-((1-methyl-4-phenyl-1H-indol-3-yl)methylene)benzofuran-3(2H)-one], the concentration for half-maximal inhibition (IC50) was greater than 5100 nM at PI3K-gamma, 1240 nM at human TOR and greater than 5100 nM on PI3K-alpha.

Regarding `COc1ccc2c(c1)c(/C=C1\Oc3cc(O)cc(O)c3C1=O)c(C1CC1)n2CC(=O)N(C)C` [Example 444, 2-{2-Cyclopropyl-3-[(Z)-(4,6-dihydroxy-3-oxo-1-benzofuran-2(3H)-ylidene)methyl]-5-methoxy-1H-indol-1-yl}-N,N-dimethylacetamide], the results for the concentration for half-maximal inhibition (IC50) against PI3K-gamma, on human TOR and on PI3K-alpha were 100 nM, 12.3 nM and 65.5 nM, respectively.

With `COc1ccc2c(c1)c(/C=C1\Oc3cc(O)cc(O)c3C1=O)c(C1CCC1)n2CCN1CCN(C)CC1` [Example 446, (2Z)-2-({2-Cyclobutyl-5-methoxy-1-[2-(4-methylpiperazin-1-yl)ethyl]-1H-indol-3-yl}methylene)-4,6-dihydroxy-1-benzofuran-3(2H)-one], the IC50 was determined as 81 nM against PI3K-gamma, 3.75 nM at human TOR and 3.5 nM on PI3K-alpha.

In the case of `COc1ccc2c(c1)c(/C=C1\Oc3cc(O)cc(O)c3C1=O)c(C1CCCCC1)n2CCN1CCN(C)CC1` [Example 447, (2Z)-2-({2-Cyclohexyl-5-methoxy-1-[2-(4-methylpiperazin-1-yl)ethyl]-1H-indol-3-yl}methylene)-4,6-dihydroxy-1-benzofuran-3(2H)-one], the IC50 at PI3K-gamma came out at 105 nM; at human TOR, 1.3 nM; at PI3K-alpha, 1.7 nM.

As to `COc1ccc2c(c1)c(/C=C1\Oc3cc(O)c(Cl)cc3C1=O)c(C)n2CCCN(C)C` [Example 448, (2Z)-5-Chloro-2-({1-[3-(dimethylamino)propyl]-5-methoxy-2-methyl-1H-indol-3-yl}methylene)-6-hydroxy-1-benzofuran-3(2H)-one], the figures for the IC50 against PI3K-gamma, on human TOR and on PI3K-alpha were 5130 nM, greater than 20000 nM and 142 nM, respectively.

Consider `COc1ccc2c(c1)c(/C=C1\Oc3c(ccc(O)c3F)C1=O)c(C)n2CCCN(C)C` [Example 449, (2Z)-2-({1-[3-(Dimethylamino)propyl]-5-methoxy-2-methyl-1H-indol-3-yl}methylene)-7-fluoro-6-hydroxy-1-benzofuran-3(2H)-one], for which the IC50 on PI3K-gamma is greater than 11000 nM; on human TOR it was greater than 20000 nM; at PI3K-alpha, 166 nM.

With `COc1ccc2c(c1)c(/C=C1\Oc3c(ccc(O)c3Cl)C1=O)c(C)n2CCN1CCN(C)CC1` [Example 451, (2Z)-7-Chloro-6-hydroxy-2-({5-methoxy-2-methyl-1-[2-(4-methylpiperazin-1-yl)ethyl]-1H-indol-3-yl}methylene)-1-benzofuran-3(2H)-one], the IC50 was 7740 nM at PI3K-gamma, greater than 20000 nM at human TOR and 375 nM on PI3K-alpha.

As for `COc1ccc2c(c1)c(/C=C1\Oc3cc(O)ccc3C1=O)c(C)n2CCN1CCCC1` [Example 452, (2Z)-6-Hydroxy-2-{[5-methoxy-2-methyl-1-(2-pyrrolidin-1-ylethyl)-1H-indol-3-yl]methylene}-1-benzofuran-3(2H)-one], the IC50 on PI3K-gamma amounted to 990 nM; at human TOR it was 1950 nM; at PI3K-alpha it was 49.5 nM.

On to `COc1ccc2c(c1)c(/C=C1\Oc3cc(O)ccc3C1=O)c(C)n2CCN1CCCC1C` (stereo not drawn) [Example 453, (2Z)-6-Hydroxy-2-({5-methoxy-2-methyl-1-[2-(2-methylpyrrolidin-1-yl)ethyl]-1H-indol-3-yl}methylene)-1-benzofuran-3(2H)-one], for which the figures for the IC50 on PI3K-gamma, on human TOR and at PI3K-alpha were 550 nM, 2200 nM and 49.5 nM, respectively.

In the case of `COc1ccc2c(c1)c(/C=C1\Oc3cc(O)ccc3C1=O)c(C)n2CCN1CCCCC1` [Example 454, (2Z)-6-Hydroxy-2-{[5-methoxy-2-methyl-1-(2-piperidin-1-ylethyl)-1H-indol-3-yl]methylene}-1-benzofuran-3(2H)-one], the figures for the IC50 against PI3K-gamma, on human TOR and at PI3K-alpha were 517 nM, 1300 nM and 32 nM, respectively.

For the compound `COc1ccc2c(c1)c(/C=C1\Oc3cc(O)ccc3C1=O)c(C)n2CCN1CCC(C)CC1` [Example 455, (2Z)-6-Hydroxy-2-({5-methoxy-2-methyl-1-[2-(4-methylpiperidin-1-yl)ethyl]-1H-indol-3-yl}methylene)-1-benzofuran-3(2H)-one], the half-inhibitory concentration (IC50) was 612 nM on PI3K-gamma, 1400 nM at human TOR and 39 nM at PI3K-alpha.

On to `COc1ccc2c(c1)c(/C=C1\Oc3cc(O)c(Cl)cc3C1=O)c(C)n2CCN1CCN(C)CC1` [Example 456, (2Z)-5-Chloro-6-hydroxy-2-({5-methoxy-2-methyl-1-[2-(4-methylpiperazin-1-yl)ethyl]-1H-indol-3-yl}methylene)-1-benzofuran-3(2H)-one], for which the results for the IC50 against PI3K-gamma, on human TOR and at PI3K-alpha were 4600 nM, greater than 20000 nM and 90.5 nM, respectively.

For `COc1ccc2c(c1)c(/C=C1\Oc3c(ccc(O)c3F)C1=O)c(C)n2CCN1CCN(C)CC1` [Example 457, (2Z)-7-Fluoro-6-hydroxy-2-({5-methoxy-2-methyl-1-[2-(4-methylpiperazin-1-yl)ethyl]-1H-indol-3-yl}methylene)-1-benzofuran-3(2H)-one], the IC50 against PI3K-gamma was 5050 nM; on human TOR, greater than 20000 nM; at PI3K-alpha, 74 nM.

For the compound `COc1ccc2c(c1)c(/C=C1\Oc3cc(O)c(C)cc3C1=O)c(C)n2CCN1CCN(C)CC1` [Example 458, (2Z)-6-Hydroxy-2-({5-methoxy-2-methyl-1-[2-(4-methylpiperazin-1-yl)ethyl]-1H-indol-3-yl}methylene)-5-methyl-1-benzofuran-3(2H)-one], the values for the half-maximal inhibitory concentration (IC50) on PI3K-gamma, on human TOR and on PI3K-alpha were 4350 nM, greater than 20000 nM and 134 nM, respectively.

For `COc1ccc2c(c1)c(/C=C1\Oc3cc(O)c(C)cc3C1=O)c(C)n2CCCN(C)C` [Example 459, (2Z)-2-({1-[3-(Dimethylamino)propyl]-5-methoxy-2-methyl-1H-indol-3-yl}methylene)-6-hydroxy-5-methyl-1-benzofuran-3(2H)-one], the IC50 at PI3K-gamma is 6690 nM; on human TOR, greater than 20000 nM; at PI3K-alpha, 191 nM.

Regarding `COc1ccc2c(c1)c(/C=C1\Oc3cc(O)ccc3C1=O)c(C)n2CCCN1CCC(C)CC1` [Example 460, (2Z)-6-Hydroxy-2-({5-methoxy-2-methyl-1-[3-(4-methylpiperidin-1-yl)propyl]-1H-indol-3-yl}methylene)-1-benzofuran-3(2H)-one], the IC50 against PI3K-gamma turned out to be 1380 nM; on human TOR it was 6500 nM; on PI3K-alpha, 18 nM.

Consider `COc1ccc2c(c1)c(/C=C1\Oc3cc(O)ccc3C1=O)c(C)n2CCCN1CCCC1C` (stereo not drawn) [Example 461, (2Z)-6-Hydroxy-2-({5-methoxy-2-methyl-1-[3-(2-methylpyrrolidin-1-yl)propyl]-1H-indol-3-yl}methylene)-1-benzofuran-3(2H)-one], for which the IC50 worked out at 1060 nM on PI3K-gamma, 12500 nM at human TOR and 19.5 nM at PI3K-alpha.

In the case of `COc1ccc2c(c1)c(/C=C1\Oc3cc(O)ccc3C1=O)c(C1CC1)n2CCCN(C)C` [Example 462, (2Z)-2-({2-Cyclopropyl-1-[3-(dimethylamino)propyl]-5-methoxy-1H-indol-3-yl}methylene)-6-hydroxy-1-benzofuran-3(2H)-one], the IC50 at PI3K-gamma was 1050 nM; at human TOR it was 635 nM; on PI3K-alpha, 21.5 nM.

With `COc1ccc2c(c1)c(/C=C1\Oc3cc(O)cc(O)c3C1=O)c(-c1cncnc1)n2CCN1CCN(C)CC1` [Example 463, (2Z)-4,6-Dihydroxy-2-({5-methoxy-1-[2-(4-methylpiperazin-1-yl)ethyl]-2-pyrimidin-5-yl-1H-indol-3-yl}methylene)-1-benzofuran-3(2H)-one], the IC50 was 971 nM against PI3K-gamma, 2000 nM on human TOR and 51.5 nM at PI3K-alpha.

As to `COc1ccc2c(c1)c(/C=C1\Oc3cc(O)cc(C)c3C1=O)c(C1CC1)n2CCN1CCN(C)CC1` [Example 464, (2Z)-2-({2-Cyclopropyl-5-methoxy-1-[2-(4-methylpiperazin-1-yl)ethyl]-1H-indol-3-yl}methylene)-6-hydroxy-4-methyl-1-benzofuran-3(2H)-one], the IC50 against PI3K-gamma was 1450 nM; at human TOR it was 37.5 nM; at PI3K-alpha it was 13.5 nM.

`COc1ccc2c(c1)c(/C=C1\Oc3cc(O)cc(F)c3C1=O)c(C)n2CCCN(C)C` [Example 465, (2Z)-2-({1-[3-(Dimethylamino)propyl]-5-methoxy-2-methyl-1H-indol-3-yl}methylene)-4-fluoro-6-hydroxy-1-benzofuran-3(2H)-one]: the results for the IC50 on PI3K-gamma, on human TOR and at PI3K-alpha were 475 nM, greater than 20000 nM and 29.5 nM, respectively.
